14 molecules from PubChem BioAssay (NCI) can be followed below.

Several values for one entry are separate records, joined by “and”; a condition that tells them apart may be missing. Equal entries are not always repeated.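 These data come from cells grown in 96-well plates and exposed to compound for 48 hours at five concentrations. GI50 is the concentration that inhibits growth by half. TGI is the concentration that stops growth completely.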

Test in all cases: NCI-60 cell line screen, 48 h
The subject of experiment [1] is UO-31 renal.
Experiment [2] concerns HOP-62 NSCLC.
For experiment [3], the system named is EKVX NSCLC.
The subject of experiment [4] is K-562 leukemia.
Experiment [5] concerns OVCAR-3 ovarian.
Experiment [6] has as its system SK-MEL-28 melanoma.
In experiment [7] the test system is SK-MEL-2 melanoma.
Experiment [8] has as its system SW-620 colon.
Experiment [9] deals with SR leukemia.
Experiment [10] deals with MDA-MB-231 breast.

Consider `Nc1nc(N)c2ncn(CC(CO)CC(c3ccccc3)P(=O)(O)O)c2n1` (centres undefined), for which the TGI in [1], in [2], in experiment [3], in [4], in [5] and in [6] was more than 100 µM each time. Moreover, the TGI in experiment [7], in experiment [8] and in [9] was more than 100 µM each time. Also, the GI50 in experiment [9] is > 100 µM and 35 µM.
In the case of `Cc1c2cc[n+](C)cc2c(C)c2c1[nH]c1ccccc12`, the TGI in [1] is > 93.4 µM and 68.7 µM; in experiment [2], 2.64 µM and 2.76 µM; in experiment [3], 11.1 µM and 14 µM; in experiment [4] it was 43.1 µM and 40.2 µM; in [5] it was 19.7 µM and 21.3 µM; in [6], 4.83 µM and 7.1 µM. Also, the TGI in experiment [7] was 2.85 µM and 3.5 µM; in [8], 54.6 µM and 47.5 µM; in [9], more than 100 µM.
For `CCCCCCCCCC[C@@H](O)[C@@H]1CC[C@@H]([C@@H]2CC[C@@H]([C@@H](O)CCCCCCCCCCC(O)CC3=CC(C)OC3=O)O2)O1` (some centres undefined), the TGI in experiment [1], in [2], in experiment [3], in experiment [4], in experiment [10] and in experiment [6] was more than 10 µM throughout. For the same molecule, the TGI in experiment [8] is more than 10 µM; in experiment [9] it was 6.45 µM.
Turning to `COc1ccc(-c2cn3ccnc3c(-c3ccc4ncn(C5CCCCC5)c4c3)n2)cc1`, the GI50 is 1.35 µM in experiment [1]; 3.04 µM in experiment [3]; 0.422 µM in experiment [4]; 2.83 µM in [10]; 0.411 µM in experiment [5]; 2.1 µM in [6]. In addition, the results for the GI50 in [7], in experiment [8] and in experiment [9] were 0.944 µM, 0.734 µM and 0.89 µM, respectively. Further, the TGI in experiment [1], in experiment [3], in experiment [4], in [10], in experiment [5] and in experiment [6] was more than 100 µM throughout. Moreover, the TGI in experiment [7], in experiment [8] and in experiment [9] was more than 100 µM each time.
For `CCOC(=O)/C(=C\c1ccc(CO)o1)P(=O)(OCC)OCC`, the TGI in experiment [2] is more than 100 µM; in experiment [3] it was more than 100 µM; in experiment [10], 93.5 µM; in experiment [5] it was 59.9 µM; in experiment [6], 82.3 µM; in experiment [7] it was 92.2 µM. Further, the TGI in experiment [8] worked out at 60.9 µM; in experiment [9], 71.6 µM.
With `COc1nc2c(c(=O)n1C)N[C@@H]1[C@@H](O)[C@H](O)CO[C@@H]1N2`, the TGI in experiment [1], in experiment [2], in [3], in experiment [4], in experiment [5] and in experiment [6] was more than 100 µM in each case. The TGI in experiment [7], in experiment [8] and in [9] was more than 100 µM in each case.
Turning to `Nc1cc(CO)cc(Nc2c3ccccc3nc3occc23)c1`, the TGI in experiment [1] was more than 100 µM; in [2] it was more than 100 µM; in [3], more than 100 µM; in [10], more than 100 µM; in [5] it was more than 100 µM; in experiment [6] it was 72.4 µM. Further, the TGI in experiment [7] was determined as 73.9 µM; in experiment [9] it was 27.3 µM.
Regarding `O=C1CSC2(CCN(CCCN3c4ccccc4Sc4ccc(Cl)cc43)CC2)N1`, the TGI in experiment [1] worked out at 19.5 µM; in [2] it was 25.5 µM; in experiment [3] it was 22.7 µM; in [4], 16.8 µM; in experiment [10], 18.8 µM; in experiment [5], 22.1 µM. Further, the TGI in [6] turned out to be 28.9 µM; in [7], 31 µM; in [8], 23.6 µM.
With `O=C1NC(N2CCOCC2)=N/C1=C\c1ccccc1O`, the TGI in experiment [1], in experiment [2], in experiment [3], in experiment [4], in [10] and in experiment [5] was more than 100 µM throughout. The TGI in experiment [6], in [7] and in experiment [8] was more than 100 µM throughout.
As for `CC(=O)Nc1ccc(Nc2nc(=O)[nH]c(=O)[nH]2)cc1`, the TGI in experiment [1], in experiment [2], in [3], in experiment [10], in experiment [5] and in [6] was more than 100 µM each time. For the same molecule, the TGI in experiment [7], in [8] and in [9] was more than 100 µM each time.
Turning to `Clc1ccc(OCc2nnc(CCCCCCCCc3nnc(COc4ccc(Cl)cc4Cl)o3)o2)c(Cl)c1`, the TGI in [1], in experiment [3], in experiment [4], in [10], in experiment [6] and in experiment [7] was more than 100 µM throughout. In experiment [8], this molecule had a TGI of more than 100 µM.
With `S=C1CC(c2ccc(Cl)cc2)Sc2ccccc2N1` (centres undefined), the TGI was more than 100 µM in [1]; 35.1 µM in experiment [2]; more than 100 µM in [3]; more than 10 µM in experiment [4]; more than 100 µM in experiment [10]; 68 µM in experiment [5]. Also, the TGI in experiment [6] and in [9] was more than 100 µM each time.
Take `COc1cccc(/C=C/C2=NN(c3cccc(S(=O)(=O)O)c3)C3(C2)SCC(=O)N3c2nc3ccccc3s2)c1` (centres undefined): the TGI in experiment [1], in [3], in experiment [4], in experiment [10], in experiment [6] and in [7] was more than 100 µM throughout. The results for the TGI in [8] and in [9] were more than 100 µM and 62.9 µM, respectively.
Regarding `COc1ccc2nc3c([N+](=O)[O-])ccc4c3c(c2c1)NCCN4C`, the TGI was 2.82 µM in experiment [1]; 3.16 µM in [2]; 6.61 µM in [3]; more than 100 µM in [4]; 3.01 µM in [10]; 5.62 µM in [5]. For the same molecule, the TGI was 6.5 µM in [6], 4.76 µM in experiment [8] and more than 100 µM in [9].
